# From paper PMC2358886, “Evolution of pharmacologic specificity in the pregnane X receptor” (BMC Evolutionary Biology, 2008)
# Read-outs that look alike come from different tables or passages of the source.
# Key:
# rabbit PXR [1] = target: T1, rabbit PXR (Oryctolagus cuniculus, UniProt Q9TU02)
# T1 sequence (Q9TU02 1-411): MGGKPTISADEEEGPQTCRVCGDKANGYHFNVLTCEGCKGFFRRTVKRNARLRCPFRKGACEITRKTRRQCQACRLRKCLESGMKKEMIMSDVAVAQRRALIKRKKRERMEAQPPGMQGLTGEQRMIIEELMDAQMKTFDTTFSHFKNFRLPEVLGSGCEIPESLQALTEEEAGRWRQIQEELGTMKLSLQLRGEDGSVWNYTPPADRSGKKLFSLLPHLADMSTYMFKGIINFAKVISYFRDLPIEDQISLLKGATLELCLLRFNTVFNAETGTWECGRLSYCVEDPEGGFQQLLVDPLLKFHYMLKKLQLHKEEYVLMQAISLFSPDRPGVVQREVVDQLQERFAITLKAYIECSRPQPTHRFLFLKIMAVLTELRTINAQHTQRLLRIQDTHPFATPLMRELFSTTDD
# chicken PXR [2] = target: T2, chicken PXR (Gallus gallus, UniProt Q9DFH3); assay: cell-based
# T2 sequence (Q9DFH3 1-391): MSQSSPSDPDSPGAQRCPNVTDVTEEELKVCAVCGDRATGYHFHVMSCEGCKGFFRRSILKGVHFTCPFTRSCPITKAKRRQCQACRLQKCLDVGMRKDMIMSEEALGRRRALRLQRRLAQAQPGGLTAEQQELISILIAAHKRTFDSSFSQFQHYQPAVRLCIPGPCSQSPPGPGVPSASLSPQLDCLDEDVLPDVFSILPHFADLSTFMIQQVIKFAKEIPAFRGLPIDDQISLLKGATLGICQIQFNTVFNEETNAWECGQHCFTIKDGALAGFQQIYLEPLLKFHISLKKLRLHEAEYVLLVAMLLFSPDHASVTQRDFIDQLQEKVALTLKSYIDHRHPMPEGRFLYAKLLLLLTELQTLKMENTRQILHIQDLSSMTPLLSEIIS
# chicken PXR [3] = target: T2, chicken PXR
# rat PXR [4] = target: T3, rat PXR (Rattus norvegicus, UniProt Q9R1A7)
# T3 sequence (Q9R1A7 1-431): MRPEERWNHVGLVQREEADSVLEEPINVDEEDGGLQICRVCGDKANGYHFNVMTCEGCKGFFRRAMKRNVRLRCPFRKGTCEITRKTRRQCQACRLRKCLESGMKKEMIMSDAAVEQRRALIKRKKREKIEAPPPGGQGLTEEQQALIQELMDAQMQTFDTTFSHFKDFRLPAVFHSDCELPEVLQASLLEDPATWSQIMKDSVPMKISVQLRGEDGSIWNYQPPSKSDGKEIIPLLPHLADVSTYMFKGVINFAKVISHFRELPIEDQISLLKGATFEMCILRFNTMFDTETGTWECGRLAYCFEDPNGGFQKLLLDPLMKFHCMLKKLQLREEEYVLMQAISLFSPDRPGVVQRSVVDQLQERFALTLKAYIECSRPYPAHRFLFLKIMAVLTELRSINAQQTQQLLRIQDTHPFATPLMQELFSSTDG
# rabbit PXR [5] = target: T1, rabbit PXR; assay: PXR activation luciferase reporter assay, rabbit PXR; conditions: -log(EC50), EC50 in molar units
# human PXR = target: T4, human PXR (Homo sapiens, UniProt O75469)
# T4 sequence (O75469 1-434): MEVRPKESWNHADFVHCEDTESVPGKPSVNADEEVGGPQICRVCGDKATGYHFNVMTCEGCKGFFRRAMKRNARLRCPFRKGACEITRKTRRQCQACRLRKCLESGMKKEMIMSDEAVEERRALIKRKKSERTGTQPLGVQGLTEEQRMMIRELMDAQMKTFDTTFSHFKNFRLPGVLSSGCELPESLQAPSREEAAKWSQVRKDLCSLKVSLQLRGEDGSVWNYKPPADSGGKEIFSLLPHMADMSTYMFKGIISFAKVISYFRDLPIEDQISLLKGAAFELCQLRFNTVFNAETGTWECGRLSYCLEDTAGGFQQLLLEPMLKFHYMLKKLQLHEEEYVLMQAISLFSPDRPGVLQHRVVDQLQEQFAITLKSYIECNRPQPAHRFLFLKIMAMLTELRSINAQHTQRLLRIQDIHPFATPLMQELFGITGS
# mouse PXR = target: T5, mouse PXR (Mus musculus, UniProt O54915)
# T5 sequence (O54915 1-431): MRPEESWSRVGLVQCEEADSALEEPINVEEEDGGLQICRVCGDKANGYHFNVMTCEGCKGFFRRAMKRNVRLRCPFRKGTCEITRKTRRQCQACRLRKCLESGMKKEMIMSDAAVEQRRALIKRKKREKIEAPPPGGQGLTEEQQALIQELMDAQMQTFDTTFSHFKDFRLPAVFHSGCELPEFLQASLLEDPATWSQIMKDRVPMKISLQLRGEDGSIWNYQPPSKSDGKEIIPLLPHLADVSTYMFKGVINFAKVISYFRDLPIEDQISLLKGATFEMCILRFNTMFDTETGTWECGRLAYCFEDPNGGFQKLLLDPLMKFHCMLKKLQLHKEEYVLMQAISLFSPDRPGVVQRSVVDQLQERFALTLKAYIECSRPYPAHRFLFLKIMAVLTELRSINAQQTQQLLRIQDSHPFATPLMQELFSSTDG
# zebrafish PXR [6] = target: T6, zebrafish PXR (Danio rerio, UniProt A5WYG8)
# T6 sequence (A5WYG8 144-430): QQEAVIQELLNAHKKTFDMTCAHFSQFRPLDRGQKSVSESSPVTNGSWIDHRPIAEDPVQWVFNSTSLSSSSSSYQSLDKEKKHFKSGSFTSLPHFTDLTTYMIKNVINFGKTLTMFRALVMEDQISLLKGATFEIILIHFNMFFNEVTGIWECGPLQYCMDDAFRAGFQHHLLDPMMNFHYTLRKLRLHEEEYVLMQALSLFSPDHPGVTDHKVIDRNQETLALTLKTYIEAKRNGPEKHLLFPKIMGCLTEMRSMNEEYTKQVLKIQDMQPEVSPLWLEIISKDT
# Xenopus tropicalis PXR = assay: Activation of Xenopus tropicalis PXR (GAL4-LBD chimeric construct) luciferase reporter assay; assay type: cell-based
# Protocol: Cloning of the LBD of this PXR from adult female ovary and expression in a GAL4-LBD chimeric construct allowed for determination of ligand specificity.
# The PXR activation assay was a luciferase-based reporter assay [17, 45]. On day 1, 30,000 cells/well were seeded onto 96-well white opaque plates (Corning-Costar, Corning, NY, USA). On day 2, cells were transfected using the calcium phosphate precipitation method with expression vector or 'empty' control vector and luciferase reporter plasmid. On day 3, the cells were washed and then incubated with medium containing charcoal-dextran treated fetal bovine serum (Hyclone, Logan, UT, USA) and drugs or vehicle. […]
# rat PXR [7] = target: T3, rat PXR; assay: cell-based
# chicken PXR [8] = target: T2, chicken PXR; assay: in vitro
# zebrafish PXR [9] = target: T6, zebrafish PXR; assay: cell-based
# Ciona VDR/PXR = assay: Activation of Ciona VDR/PXR (LBD/GAL4 chimeric receptor) luciferase reporter assay; assay type: cell-based, Ciona intestinalis; conditions: screening, reference maximal activator 20 μM 6-formylindolo-[3,2-b]carbazole
# Excerpt: The LBD of Ciona VDR/PXR was cloned from cDNA fragments generously provided by Professors Yuji Kohara and Norituki Satoh, and then inserted into the PM2-GAL4 plasmid to create an LBD/GAL4 chimeric receptor.
# The LBD of Xenopus tropicalis (Western clawed frog) PXR (xtPXR) was cloned by PCR from RNA extracted from ovary of an adult female frog. Ciona VDR/PXR was cloned from cDNA fragments ciem829d05 and cilv048e18 provided by Professor Yuji Kohara (Center for Genetic Resource Information, National Institute of Genetics, Research Organization of Information and Systems, Mishima, Japan) and Professor Noriyuki Satoh (Kyoto University, Kyoto, Japan), with analysis of the cDNA clones supported by Grant-in-aid for Scientific Research on Priority Area "Genome" of Ministry of Education, Culture, Sports, Science and Technology, Japan.
# The creation of a HepG2 (human liver) cell line stably expressing the human Na^+-taurocholate cotransporter (NTCP) has been previously reported. HepG2-NTCP cells were grown in modified Eagle's medium-α containing 10% fetal bovine serum and 1% penicillin/streptomycin (Invitrogen, Carlsbad, CA, USA). Plasmids containing cDNAs for 8 PXRs from 7 species (human, mouse, rat, rabbit, chicken [also called chicken X receptor, CXR], African clawed frog [also termed Xenopus laevis benzoate X receptors α and β, BXRα and BXRβ ], zebrafish), as well as the reporter constructs tk-UAS-Luc and CYP3A4-PXRE-Luc, and 'empty' vectors pCDNA, PsG5, and PM2 were generously provided by SA Kliewer, JT Moore, and LB Moore (GlaxoSmithKline, Research Triangle Park, NC, USA). […] For the full-length expression vectors, the reporter plasmid was CYP3A4-PXRE-Luc, a construct that contains a promoter element from CYP3A4 (recognized by PXR DBDs) driving luciferase expression. For the GAL4/LBD expression constructs, the reporter plasmid was tk-UAS-Luc, which contains GAL4 DNA binding elements driving luciferase expression. The following transfection ratios of reporter, receptor, and β-galactosidase plasmids were used (ng/well): human, mouse, rabbit, and rat PXRs – 25/2.7/20; chicken PXR – 10/1/20; Xenopus tropicalis PXR, zebrafish PXR, and Ciona VDR/PXR – 75/50/20.
# The PXR activation assay was a luciferase-based reporter assay. On day 1, 30,000 cells/well were seeded onto 96-well white opaque plates (Corning-Costar, Corning, NY, USA). On day 2, cells were transfected using the calcium phosphate precipitation method with expression vector or 'empty' control vector and luciferase reporter plasmid. On day 3, the cells were washed and then incubated with medium containing charcoal-dextran treated fetal bovine serum (Hyclone, Logan, UT, USA) and drugs or vehicle. On day 4, the cells were washed and the medium replaced with serum-free medium. […]
# [10] = -log(EC50), EC50 in molar units
smiles,measurement,setting,value
"C[C@H](CCC(=O)O)[C@H]1CC[C@H]2[C@@H]3[C@H](O)C[C@@H]4C[C@H](O)CC[C@]4(C)[C@H]3CC[C@]12C [BI005, Chenodeoxycholic acid]","Rabbit PXR efficacy, ε",rabbit PXR [1]; rabbit,4.70 (ε = 0.42)
same,EC50,chicken PXR [2],20 µM
same,"Chicken PXR efficacy, ε",chicken PXR [3]; chicken,4.70 (ε = 0.36)
same,Rat PXR Activity,rat PXR [4],No effect
"C[C@H](CCC(O)C(CO)COS(=O)(=O)O)[C@H]1CC[C@H]2[C@@H]3[C@H](O)C[C@@H]4C[C@H](O)CC[C@]4(C)[C@H]3C[C@H](O)[C@]12C (stereo partly drawn) [BI034, 5β-Cholestan-3α,7α,12α,24,26-pentol-27-sulfate]",Rabbit PXR Activity,rabbit PXR [5],4.09
same,hPXR Efficacy,human PXR,0.39
same,"Mouse PXR efficacy, ε",mouse PXR,0.85
same,Mouse PXR Activity,mouse PXR; [10],4.44
same,zfPXR Efficacy,zebrafish PXR [6],0.13
same,zfPXR Activity,"zebrafish PXR [6]; -log(EC50), EC50 in molar units, activation of zebrafish PXR",4.35
same,Activation of zebrafish PXR (in words),zebrafish PXR [6]; bile salts,activated
same,"Rabbit PXR efficacy, ε",rabbit PXR [1],1.93
same,Toxicity,HepG2 cells,200 µM
same,"Chicken PXR efficacy, ε",chicken PXR [3],0.88
same,Chicken PXR Activity,chicken PXR [3]; [10],4.37
same,"Rat PXR efficacy, ε",rat PXR [4],0.85
same,Rat PXR Activity,rat PXR [4]; [10],4.40
"CCCCOC(=O)c1ccc(N)cc1 [MI4, n-Butyl-4-aminobenzoate]",hPXR Efficacy,human PXR; human,1.35
same,zfPXR Efficacy,zebrafish PXR [6]; zebrafish,0.69
same,Toxicity,"HepG2 cells; human, 24 hr",100 µM
same,Activation of Xenopus tropicalis PXR (in words),Xenopus tropicalis PXR,activates
same,EC50,rat PXR [7],> 100 µM
same,EC50,chicken PXR [8],> 100 µM
same,EC50,zebrafish PXR [9],13.8 µM
same,Activation of Ciona VDR/PXR (in words),Ciona VDR/PXR; listed as n-butyl p-aminobenzoate,Weaker activation
same,Activation of Ciona VDR/PXR (in words),Ciona VDR/PXR; listed as n-butyl-p-aminobenzoate,micromolar range
